According to patent US20260042769A1, “TRIARYL AGONISTS OF ALPHA-2 ADRENERGIC RECEPTORS” (ALCEPTOR THERAPEUTICS, INC., priority 2023, published 2026):

Target: T1, human ADRA2B receptor (Homo sapiens, UniProt P18089)
T1 construct: expressed in transfected cells
T1 sequence (P18089 1-450): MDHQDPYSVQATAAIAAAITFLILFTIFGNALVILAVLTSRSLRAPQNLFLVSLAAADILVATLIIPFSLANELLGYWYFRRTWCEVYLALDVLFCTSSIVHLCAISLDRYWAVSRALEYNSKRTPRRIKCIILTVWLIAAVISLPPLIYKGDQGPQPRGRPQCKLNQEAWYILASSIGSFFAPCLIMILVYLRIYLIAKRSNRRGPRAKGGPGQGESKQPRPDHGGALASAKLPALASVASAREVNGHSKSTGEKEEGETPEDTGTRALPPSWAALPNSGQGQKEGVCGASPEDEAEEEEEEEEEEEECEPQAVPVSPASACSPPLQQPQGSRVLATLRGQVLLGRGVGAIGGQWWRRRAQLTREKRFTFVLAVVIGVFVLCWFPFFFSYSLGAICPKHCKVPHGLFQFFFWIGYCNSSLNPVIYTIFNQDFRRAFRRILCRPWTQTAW
Assay: GTPγS agonist assay, ADRA2B receptor
Type: biochemical
Settings: read-out: GTPase - Human Alpha2B EC50
Procedure, shortened: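 CHO-K1 membranes stably expressing human ADRA2B (5 μg protein) in 20 mM HEPES, 10 mM MgCl2, 200 mM NaCl with GDP, preincubated 10 min at room temperature with compound. Binding reaction 1 h at 37° C; bound label collected on GF/C filters, washed, read by scintillation counting.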

| Structure (SMILES) | EC50 [nM] |
| --- | --- |
| FC(F)Oc1cccc([C@@H](Cc2ccccn2)c2cnc[nH]2)c1 [Compound 38, 2-[(2R)-2-[3-(difluoromethoxy)phenyl]-2-(1H-imidazol-4-yl)ethyl]pyridine] | > 500 |
| Cc1cncc(C[C@H](c2cnc[nH]2)c2cccc(C)c2C)n1 [Compound 82, 2-[(2S)-2-(2,3-dimethylphenyl)-2-(1H-imidazol-4-yl)ethyl]-6-methylpyrazine] | 50 to 500 |
| COc1cccc(C[C@H](c2c[nH]cn2)c2cccc(Cl)c2Cl)n1 [Compound 99, 4-[(S)-1-(2,3-dichlorophenyl)-2-(6-methoxy-2-pyridyl)ethyl] imidazole] | > 500 |
| Cn1ncc2cc(C(Cc3cccnn3)c3c[nH]cn3)ccc21 (stereo not shown) [Compound 230, 5-[1-(4-imidazolyl)-2-(3-pyridazinyl)ethyl]-1-methyl-1H-indazole] | > 500 |
| COc1nccc(CC(c2c[nH]cn2)c2cccc(Cl)c2Cl)n1 (stereo not shown) [Compound 200, 4-[2-(2,3-dichlorophenyl)-2-(4-imidazolyl)ethyl]-2-methoxypyrimidine] | < 10 |
| COc1c(C)cccc1[C@@H](Cc1ccccn1)c1cnc[nH]1 [Compound 34, 2-[(2R)-2-(1H-imidazol-4-yl)-2-(2-methoxy-3-methylphenyl)ethyl]pyridine] | > 500 |
| COc1cccc(CC(c2cnc[nH]2)c2cccc(OC)c2Cl)n1 (stereo not shown) [Compound 20, 2-[2-(2-chloro-3-methoxyphenyl)-2-(1H-imidazol-4-yl)ethyl]-6-methoxypyridine] | < 10 |
| Fc1c(Cl)cccc1C(Cc1cccnn1)c1c[nH]cn1 (stereo not shown) [Compound 219, 3-[2-(3-chloro-2-fluorophenyl)-2-(4-imidazolyl)ethyl] pyridazine] | > 500 |
| c1cnnc(C[C@H](c2c[nH]cn2)c2cccc3c2OCC3)c1 [Compound 363, 3-[(S)-2-(2,3-dihydro-1-benzofuran-7-yl)-2-(4-imidazolyl)ethyl]pyridazine] | > 500 |

Target: T1, human ADRA2B receptor
Assay: ADRA2B arrestin agonist assay
Type: cell-based
Settings: CHO-K1 cells stably expressing human ADRA2B; read-out: Beta-Arrestin - Human Alpha2B EC50
Experimental: ADRA2A and ADRA2B Arrestin Agonist Assay Method
The arrestin assay uses frozen CHO-K1 cell lines stably expressing human ADRA2A and ADRA2B receptors. Cells are frozen following normal cell freezing protocols. Briefly, cells are washed with PBS and then dissociated with 0.25% trypsin. Dissociated cells are quenched in full media and then collected by centrifugation at 290×g for 5 minutes. […] Cells are stored at −80° C. (or in liquid N2 if stored >6 months) until the day of the assay.
On the day before the assay, frozen cells are thawed in a 37° C. water bath, brought up in 20 mL of full media, and collected via centrifugation at 290×g for 5 minutes. […] Cells are incubated overnight in a 37° C., 5% CO2 cell incubator.
On the day of the assay, agonists are diluted in Opti-MEM to 3.5x of the final assay concentration. 4 μL of agonists are added to the cells and incubated for 2 hours at 37° C. in a 5% CO2 cell incubator. 6 μL of arrestin detection reagents are dispensed onto the cells and the plates are incubated for 2 hours at room temperature. […] Plates are read on an Envision luminescence plate reader.

| Structure (SMILES) | EC50 [nM] |
| --- | --- |
| COc1ncncc1CC(c1c[nH]cn1)c1cccc(C)c1C (stereo not shown) [Compound 275, 5-[2-(4-imidazolyl)-2-(2,3-xylyl)ethyl]-4-methoxypyrimidine] | 10 to 50 |
| COc1nccc(C[C@@H](c2c[nH]cn2)c2cccc(F)c2OC)n1 [Compound 182, 4-[(R)-2-(3-fluoro-2-methoxyphenyl)-2-(4-imidazolyl)ethyl]-2-methoxypyrimidine] | 10 to 50 |
| Cc1nc(C[C@H](c2c[nH]cn2)c2cccc(C)c2C)co1 [Compound 374, 4-[(S)-2-(4-imidazolyl)-2-(2,3-xylyl)ethyl]-2-methyl-1,3-oxazole] | > 500 |
| Cc1cccc([C@H](Cc2cccc(CO)n2)c2c[nH]cn2)c1C [Compound 147, {6-[(S)-2-(4-imidazolyl)-2-(2,3-xylyl)ethyl]-2-pyridyl}methanol] | > 500 |
| Cc1nccc(CC(c2c[nH]cn2)c2cccc3cccnc23)n1 (stereo not shown) [Compound 341, 4-[2-(4-imidazolyl)-2-(8-quinolyl)ethyl]-2-methylpyrimidine] | < 10 |
| Cc1nccc(CC(c2c[nH]cn2)c2cccc(Cl)c2C)n1 (stereo not shown) [Compound 158, 4-[2-(3-chloro-2-tolyl)-2-(4-imidazolyl)ethyl]-2-methylpyrimidine] | < 10 |
| Cc1cc(CC(c2c[nH]cn2)c2cccc(C)c2C)nc(C(C)(C)O)n1 (stereo not shown) [Compound 207, 2-{4-[2-(4-imidazolyl)-2-(2,3-xylyl)ethyl]-6-methyl 2-pyrimidinyl}-2-propanol] | < 10 |
| Cc1nccc(CC(c2c[nH]cn2)c2cccc(C)c2Cl)n1 (stereo not shown) [Compound 157, 4-[2-(2-chloro-3-tolyl)-2-(4-imidazolyl)ethyl]-2-methylpyrimidine] | < 10 |
| CCc1cccc(C(Cc2ccn3ccnc3c2)c2c[nH]cn2)c1O (stereo not shown) [Compound 397, 2-[2-(1,3a-diaza-6-indenyl)-1-(4-imidazolyl)ethyl]-6-ethylphenol] | > 500 |
| Cc1cccc(C(Cc2cocn2)c2c[nH]cn2)c1F (stereo not shown) [Compound 368, 4-[2-(2-fluoro-3-tolyl)-2-(4-imidazolyl)ethyl]-1,3-oxazole] | 50 to 500 |
| c1cc2c(c(C(Cc3ccc4nccn4c3)c3c[nH]cn3)c1)OCC2 (stereo not shown) [Compound 300] | < 10 |
| COc1cccc(C(Cc2cccnn2)c2c[nH]cn2)c1C (stereo not shown) [Compound 140, 3-[2-(4-imidazolyl)-2 (3-methoxy-2-tolyl)ethyl]pyridazine] | > 500 |
| COCc1nccc(C[C@@H](c2c[nH]cn2)c2cccc(C)c2C)n1 [Compound 345, 4-[(R)-2-(4-imidazolyl)-2-(2,3-xylyl)ethyl]-2-(methoxymethyl)pyrimidine] | < 10 |
| COc1cc(CC(c2c[nH]cn2)c2cccc(C)c2C)nc(OC)n1 (stereo not shown) [Compound 307, 4-[2-(4-imidazolyl)-2-(2,3-xylyl)ethyl]-2,6-dimethoxypyrimidine] | < 10 |
| CCOc1ccc(CC(c2c[nH]cn2)c2cccc(C)c2C)cn1 (stereo not shown) [Compound 293, 4-[2-(6-ethoxy-3-pyridyl)-1-(2,3-xylyl)ethyl]imidazole] | 10 to 50 |
| Cc1cccc(C[C@@H](c2c[nH]cn2)c2cccc3c2OCC3)n1 [Compound 265, 4-[(R)-1-(2,3-dihydro-1-benzofuran-7-yl)-2-(6-methyl-2-pyridyl)ethyl]imida-zole] | 10 to 50 |
| COc1nccc(CC(c2c[nH]cn2)c2cccc(OC)c2F)n1 (stereo not shown) [Compound 181, 4-[2-(2-fluoro-3-methoxyphenyl)-2-(4-imidazolyl)ethyl]-2-methoxypyrimidine] | 10 to 50 |
| Cc1cccc(C(Cc2ncns2)c2c[nH]cn2)c1C (stereo not shown) [Compound 248, 5-[2-(4-imidazolyl)-2-(2,3-xylyl)ethyl]-1,2,4-thiadiazole] | < 10 |
| CC(C)n1cc(C[C@@H](c2c[nH]cn2)c2cccc3c2OCC3)cn1 [Compound 297, 4-[(R)-2-(2,3-dihydro-1-benzofuran-7-yl)-2-(4-imidazolyl)ethyl] 1-isopropylpyrazole] | > 500 |
| c1cc2c(c([C@@H](Cc3cocn3)c3c[nH]cn3)c1)OCC2 [Compound 371, 4-[(R)-2-(2,3-dihydro-1-benzofuran-7-yl)-2-(4-imidazolyl)ethyl] 1,3-oxazole] | 50 to 500 |
| Cc1cccc(C(Cc2ccc(F)nc2)c2c[nH]cn2)c1F (stereo not shown) [Compound 323, 4-[2-(6-fluoro-3-pyridyl)-1-(2-fluoro-3-tolyl)ethyl]imidazole] | 50 to 500 |
| Cc1cc(CC(c2c[nH]cn2)c2cccc(C)c2C)c(F)cn1 (stereo not shown) [Compound 315, 4-[2-(5-fluoro-2-methyl-4-pyridyl)-1-(2,3-xylyl)ethyl]imidazole] | < 10 |
| Cc1cccc(C(Cc2ncnc3[nH]ccc23)c2c[nH]cn2)c1C (stereo not shown) [Compound 286, 4-[2-(4-imidazolyl)-2-(2,3-xylyl)ethyl]-1H-1,5,7-triazaindene] | < 10 |
| Cc1cccc([C@H](Cc2ccnn2CF)c2c[nH]cn2)c1C [Compound 262, 5-[(S)-2-(4-imidazolyl)-2-(2,3-xylyl)ethyl]-1-(fluoromethyl)pyra-zole] | 10 to 50 |
| Cc1cccc([C@H](Cc2cccc(C(C)(C)O)n2)c2c[nH]cn2)c1C [Compound 305, 2-{6-[(S)-2-(4-imidazolyl) 2-(2,3-xylyl)ethyl]-2-pyridyl}-2-propanol] | > 500 |
| Cc1nccc(CC(c2c[nH]cn2)c2cccc3c2OCCO3)n1 (stereo not shown) [Compound 343, 4-[2-(2,3-dihydro-1,4-benzodioxin-5-yl)-2-(4-imidazolyl)ethyl]-2-methylpyrimidine] | < 10 |
| Cc1cccc([C@H](Cc2ccnn2C)c2c[nH]cn2)c1F [Compound 247, 5-[(S)-2-(2-fluoro-3-tolyl)-2-(4-imidazolyl)ethyl]-1-methylpyrazole] | 50 to 500 |
| COc1ncc(CC(c2c[nH]cn2)c2cccc(C)c2C)cn1 (stereo not shown) [Compound 339, 5-[2-(4-imidazolyl)-2-(2,3-xylyl)ethyl]-2-methoxypyrimidine] | 50 to 500 |
| Cn1cc(CC(c2c[nH]cn2)c2cccc3c2OCC3)nn1 (stereo not shown) [Compound 258, 4-[2-(2,3-dihydro-1-benzofuran-7-yl)-2-(4-imidazolyl)ethyl] 1-methyl-1H-1,2,3-triazole] | 10 to 50 |

Same assay, conditions: read-out: Beta-Arrestin - Human Alpha2B EC50

| Structure (SMILES) | EC50 [nM] |
| --- | --- |
| Cc1cccc([C@@H](Cc2ccncc2)c2c[nH]cn2)c1C [Compound 320, 4-[(R)-2-(4-pyridyl)-1-(2,3-xylyl)ethyl]imidazole] | > 500 |
| Cc1cccc([C@H](Cc2ccncc2)c2c[nH]cn2)c1C [Compound 319, 4-[(S)-2-(4-pyridyl)-1-(2,3-xylyl)ethyl]imidazole] | < 10 |
